According to US20170049845A1, “METHODS OF TREATING ALZHEIMER'S DISEASE, HUNTINGTON'S DISEASE, AUTISM, OR OTHER DISORDERS” (Northwestern University, priority 2011, published 2017):
Residues, ends and D or L forms follow the SMILES beside them.

What was measured:
[1] = system: Schaffer collateral-CA1 synapses; experiment: hAβ-induced impairment of LTP at Schaffer collateral-CA1 synapses in acute hippocampal slices; assay type: cell-based, rat; conditions: high-frequency Schaffer collateral stimulation 30 min later
Excerpt: FIG. 5 depicts rescue of Aβ impairment of long-term potentiation (LTP) of synaptic transmission at Schaffer collateral-CA1 synapses in hippocampal slices in presence of GLYX-13. A: Time course of the effect of pressure ejection of Aβ(1-42) into stratum radiatum of field CA1 (Aβ injections; 12 psi/100 ms; filled circles; n=10) on basal synaptic transmission and LTP induced by high-frequency stimulus trains (3×100 Hz/500 ms), compared to vehicle (TFE) injection (open circles; n=8). B: Time course of the effect of pressure ejection of Aβ(1-42) into stratum radiatum of field CA1 in the presence of 1 μM Glyx-13 (Aβ injections; 12 psi/100 ms; filled circles; n=8) on basal synaptic transmission and LTP induced by high-frequency stimulus trains (3×100 Hz/500 ms), compared to vehicle (TFE) injection (open circles; n=8). C: Time course of the effect of pressure ejection of Aβ(1-42) into stratum radiatum of field CA1 in the presence of 1 μM D-cycloserine (Aβ injections; 12 psi/100 ms; filled circles; n=7) on basal synaptic transmission and LTP induced by high-frequency stimulus trains (3×100 Hz/500 ms), compared to vehicle (TFE) injection (open circles; n=8). D: Time course of the effect of pressure ejection of Aβ(1-42) into stratum radiatum of field CA1 in the presence of 100 μM D-Serine (Aβ injections; 12 psi/100 ms; filled circles; n=8) on basal synaptic transmission and LTP induced by high-frequency stimulus trains (3×100 Hz/500 ms), compared to vehicle (TFE) injection (open circles; n=8). Each point in A, B and C is mean±SEM normalized fEPSP slope.
We pressure ejected hAβ in the absence or presence of Glyx-13, D-cycloserine or the full agonist D-serine, into the Schaffer collateral synaptic field in CA1 stratum radiatum of acute in vitro rat hippocampal slices and attempted to evoke LTP 30 min later. FIG. 5A illustrates that hAβ alone caused a significant reduction (˜20%) in the magnitude of LTP elicited by high-frequency Schaffer collateral stimulation.

[2] = system: autistic individuals; conditions: cited from earlier work
[3] = system: low-line rats; experiment: Conspecific play induced pro-social USVs in low-line rats (autism model); assay type: in vivo, rat; conditions: adolescent male low-line rats, 50 mg/kg s.c. 15 min before testing, vs vehicle, P<0.05
Description: FIG. 2 depicts Mean±SEM (A) rates of conspecific play induced pro-social USVs (frequency-modulated 50 kHz calls) in adolescent male low-line rats pretreated with vehicle (1 mg/ml sterile saline s.c.) or (B) GLYX-13 (50 mg/kg s.c.) […] before the start of testing using a within-subjects design. (C) Proportion of total conspecific play induced USVs that were monotonous (i.e., bandwidth less than 7 kHz; n=9 per group. *P<0.05 Fisher PLSD post hoc test, 2 tailed.
Core symptoms of autism (1) deficits in social emotions and motivations, 2) communication problems, and 3) a high incidence of motor abnormalities, especially repetitive behaviors) can be modeled in part in animals using the following behavioral measures, respectively: (1) reduced time spent in social contact; (2) reduced rates of pro-social vocalizations, and (3) disrupted ultrasonic vocalization patterns.
The proportion of total conspecific play induced USVs that were monotonous (i.e., bandwidth less than 7 kHz) is shown in FIG. 2C. n=9 per group. *P<0.05 Fisher PLSD post hoc test, 2 tailed.

[4] = system: CA1 pyramidal neurons; experiment: Protection against human b-amyloid (1-42) toxicity in organotypic hippocampal slice cultures (propidium fluorescence); assay type: cell-based; conditions: 5 μg/ml hAβ, 24 hr after application
Excerpt: FIG. 4 depicts delayed neuronal death produced by Aβ(1-42) in organotypic hippocampal slice cultures upon application of GLYX-13; Mean±SEM propidium fluorescence 24 hr after bath application of Aβ(1-42) alone, versus Aβ(1-42) in the presence of indicated concentrations (μg/ml) of Glyx-13 (*, […], Student's t-test compared to Aβ alone).
To determine whether Glyx-13, by renormalizing activation of NMDA receptors, might protect against the toxicity of hAβ to susceptible neurons in a physiological network milieu, we compared the long-term effects of hAβ in the absence and presence of different concentrations of Glyx-13.

[5] = system: HD 51 CAG and WT rats; experiment: Huntington's disease model, serial operant reversal task, phase 3 pseudo-random testing; assay type: in vivo, rat; conditions: subcutaneously 20 minutes prior to task
Description: HD 51 CAG and WT (wild type) rats are used in a Huntington's disease model study, testing cognition with serial operant reversal tasks. Rats are dosed according to the following schedule:
The animals are first placed in an acquisition trial. The acquisition trial is an 8-hour testing period where the animal is reinforced with a sucrose food pellet for a “correct” lever press after a variable interval time of 30 seconds. This task requires the animals to learn which lever needs to be activated to gain reinforcement. The time taken to identify the “correct” lever is measured, as well as the number of reinforcers earned, percentage of “correct” lever presses, and errors made (incorrect lever presses). The acquisition trial is performed with access to water ad libidum. […]
The testing session is conducted using a progressive FR schedule for 25 or 30 days. […] The response rate for the left and right lever is recorded, as well as the total number of lever presses for each side, the total number of lever presses combined for each side in a session, the percentage of “correct” lever presses (“correct” lever presses/left lever presses+right lever presses then multiplied by 100 to obtain a percentage), the total reinforcers earned, and the time to complete each session. The rats are given one day off before the second phase of testing begins, with only the weight of the rats being recorded. […]

N[C@@H]1CONC1=O [D-cycloserine]
rescue of LTP after hAβ pressure ejection ([1]; 1 μM bath-applied): neither the glycine site partial agonist D-cycloserine (1 μM, FIG. 5C, open circles) nor the full agonist D-serine (100M, FIG. 5D, open circles) was able to rescue LTP | social withdrawal ([2]; autistic individuals (Posey et al., 2004)): significantly improved

N[C@H](CO)C(=O)O [D-serine]
rescue of LTP after hAβ pressure ejection [1]: nor the full agonist D-serine (100M, FIG. 5D, open circles) was able to rescue LTP

C[C@@H](O)[C@H](N)C(=O)N1CCC[C@H]1C(=O)N1CCC[C@H]1C(=O)N[C@H](C(N)=O)[C@@H](C)O [GLYX-13, L-threonyl-L-prolyl-L-prolyl-L-threonine amide] (H-TPPT-NH2)
proportion of total USVs that are monotonous (bandwidth less than 7 kHz) [3]: significantly decreased | rates of play inducing pro-social USVs (frequency-modulated 50 kHz calls) [3]: significantly increased | dose-response relation of neuroprotective potency [4]: U-shaped dose-response relation | rescue of LTP after hAβ pressure ejection ([1]; 1 μM bath-applied): LTP was restored to normal control levels | percentage of correct lever presses vs saline injections ([5]; HD animals): higher percentage trends of correct lever presses | percentage of correct lever presses vs saline injections ([5]; WT animals): higher percentage trends of correct lever presses

Cc1nc2n(c(=O)c1CCN1CCC(c3noc4cc(F)ccc34)CC1)CCCC2 [risperidone]
hyperactivity and irritability symptoms ([2]; autism): significantly decrease | inappropriate speech or social withdrawal ([2]; autism): little to no effect | side effects ([2]; autism): significant weight gain and sedative side effects
